Test results from patent US20240158446A1, “CYCLIC COMPOUND HAVING SELECTIVE INHIBITORY ACTION ON KRAS OVER HRAS AND NRAS” (CHUGAI SEIYAKU KABUSHIKI KAISHA, priority 2021, published 2024).
Read-outs that look alike come from different tables or passages of the source.

Columns and labels:
[1] = tested on: human lung cancer strain NCI-H441;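 further: cell proliferation inhibition after four days measured by CellTiter-Glo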
[2] = biological target: GDP-bound HRAS wild-type protein (Homo sapiens, UniProt P01112); assay: Binding to HRAS by surface plasmon resonance (SPR), Single Cycle Kinetics; settings: for HRAS/KRAS (ratio of KD value for HRAS to KD value for KRAS): GDP-bound HRAS wild-type protein vs GDP-bound KRAS wild-type protein; for HRAS/KRAS (ratio of KD value with respect to GDP-bound HRAS wild-type protein to KD value with respect to KRAS): SPR KD ratio HRAS/KRAS, class symbols
[3] = biological target: GDP-bound KRAS wild-type protein (Homo sapiens, UniProt P01116); assay: Binding to KRAS by surface plasmon resonance (SPR), Single Cycle Kinetics; settings: GDP-bound KRAS wild-type protein, read-out: KRAS KD
[4] = biological target: GDP-bound NRAS wild-type protein (Homo sapiens, UniProt P01111); assay: Binding to NRAS by surface plasmon resonance (SPR), Single Cycle Kinetics; settings: for NRAS/KRAS (ratio of KD value for NRAS to KD value for KRAS): GDP-bound NRAS wild-type protein vs GDP-bound KRAS wild-type protein; for NRAS/KRAS (ratio of KD value with respect to GDP-bound NRAS wild-type protein to KD value with respect to KRAS): SPR KD ratio NRAS/KRAS, class symbols
[5] = SPR, Single Cycle Kinetics, 1:1 binding model
[6] = SPR Single Cycle Kinetics, 1:1 binding model

GDP-bound NRAS wild-type protein, sequence (P01111 whole entry): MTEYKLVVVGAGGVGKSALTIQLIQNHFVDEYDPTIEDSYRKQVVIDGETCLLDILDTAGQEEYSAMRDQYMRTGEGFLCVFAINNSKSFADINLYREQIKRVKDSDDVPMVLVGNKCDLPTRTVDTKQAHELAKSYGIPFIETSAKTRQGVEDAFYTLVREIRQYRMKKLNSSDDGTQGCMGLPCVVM
GDP-bound HRAS wild-type protein, sequence (P01112 whole entry): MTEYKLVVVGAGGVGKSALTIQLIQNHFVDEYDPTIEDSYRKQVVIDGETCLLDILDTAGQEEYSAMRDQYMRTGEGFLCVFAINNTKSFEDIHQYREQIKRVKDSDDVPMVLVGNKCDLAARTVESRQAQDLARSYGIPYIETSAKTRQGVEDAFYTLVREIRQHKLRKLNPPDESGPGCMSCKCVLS
GDP-bound KRAS wild-type protein, sequence (P01116 whole entry): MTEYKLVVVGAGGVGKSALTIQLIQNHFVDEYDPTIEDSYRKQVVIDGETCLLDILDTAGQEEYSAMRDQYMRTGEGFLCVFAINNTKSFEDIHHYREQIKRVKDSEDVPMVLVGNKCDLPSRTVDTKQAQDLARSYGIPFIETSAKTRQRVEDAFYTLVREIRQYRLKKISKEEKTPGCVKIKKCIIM

SMILES	IC50 [1] [nM]	Kd ([3]; SPR, Single Cycle Kinetics) [nM]	Kd [3, 5] [nM]	HRAS/KRAS (ratio of KD value for HRAS to KD value for KRAS) ([2]; SPR)	NRAS/KRAS (ratio of KD value for NRAS to KD value for KRAS) ([4]; SPR)	HRAS/KRAS (ratio of KD value for HRAS to KD value for KRAS) ([2]; SPR, KD ratio class)	NRAS/KRAS (ratio of KD value for NRAS to KD value for KRAS) ([4]; SPR, KD ratio class)	also measured
CCO[C@@H]1C[C@H]2C(=O)NC3(CCC3)C(=O)N(C)[C@@H](C3CCCC3)C(=O)N(C)[C@H](C(=O)N3CCCCC3)CC(=O)N(C)[C@@H](CC3CC3)C(=O)N[C@@H]([C@@H](C)CC)C(=O)N(C)CC(=O)N(C)[C@H]3C/C=C\CCN(C3=O)[C@@H](Cc3ccc(C(F)(F)F)cc3)C(=O)N(C)CC(=O)N[C@@H](CCc3cc(F)c(C(F)(F)F)c(F)c3)C(=O)N2C1 [PP1291]	16.7	–	0.24	–	–	A (a compound having 10 or more and less than 20 is denoted as A)	A (a compound having 10 or more and less than 20 is denoted as A)	–
CCO[C@@H]1C[C@H]2C(=O)NC3(CCC3)C(=O)N(C)[C@@H](C3CCCC3)C(=O)N(C)[C@H](C(=O)N3CCOCC3)CC(=O)N(C)[C@@H](C)C(=O)N[C@@H]([C@@H](C)CC)C(=O)N(C)CC(=O)N(C)[C@H]3CCCCCN(C3=O)[C@@H](Cc3ccc(F)cc3)C(=O)N(C)CC(=O)N[C@@H](CCc3cc(F)c(C(F)(F)F)c(F)c3)C(=O)N2C1 [PP1175]	23.5	0.16	–	B (a compound having 3 or more and less than 10 is denoted as B)	B (a compound having 3 or more and less than 10 is denoted as B)	–	–	–
CCO[C@@H]1C[C@H]2C(=O)NC3(COC3)C(=O)N(C)[C@@H](C3CCCC3)C(=O)N(C)[C@H](C(=O)N(C)C)CC(=O)N(C)[C@@H](CC)C(=O)N[C@@H]([C@@H](C)CC)C(=O)N(C)CC(=O)N(C)[C@H]3C/C=C\CCN(C3=O)[C@@H](Cc3ccc(C(F)(F)F)cc3)C(=O)N(C)CC(=O)N[C@@H](CCc3cc(F)c(C(F)(F)F)c(F)c3)C(=O)N2C1 [PP1278, (2S,8S,12R,14S,20S,23S,27S,30S,36S,38Z)-20-cyclopentyl-8-[2-[3,5-difluoro-4-(trifluoromethyl)phenyl]ethyl]-12-ethoxy-27-ethyl-N,N,4,19,22,26,32,35-octamethyl-30-[(1S)-1-methylpropyl]-3,6,9,15,18,21,25,28,31,34,42-undecaoxo-2-[[4-(trifluoromethyl)phenyl]methyl]spiro[1,4,7,10,16,19,22,26,29,32,35-undecazatricyclo[34.5.1.0^10,14]dotetracont-38-ene-17,3′-oxetane]-23-carboxamide]	45.7	–	0.14	–	–	B (a compound having 3 or more and less than 10 is denoted as B)	A (a compound having 10 or more and less than 20 is denoted as A)	–
CCO[C@@H]1C[C@H]2C(=O)NC3(CCC3)C(=O)N(C)[C@@H](C3CCCC3)C(=O)N(CC)[C@H](C(=O)N3CCOCC3)CC(=O)N(C)[C@@H](CC)C(=O)N[C@@H]([C@@H](C)CC)C(=O)N(C)CC(=O)N(C)[C@H]3C/C=C\CCN(C3=O)[C@@H](Cc3ccc(C(F)(F)F)cc3)C(=O)N(C)CC(=O)N[C@@H](CCc3cc(F)c(C(F)(F)F)c(F)c3)C(=O)N2C1 [PP0979]	281	1.7	–	A (a compound having 10 or more and less than 20 is denoted as A)	AA (a compound having 20 or more is denoted as AA)	–	–	–
C#CC[C@H]1C(=O)N[C@@H]([C@@H](C)CC)C(=O)N(C)CC(=O)N(C)[C@H]2CC[C@@H](C)CN(C2=O)[C@@H](Cc2ccc(C(F)(F)F)cc2)C(=O)N(C)CC(=O)N[C@@H](CCc2ccc(C(F)(F)F)c(Cl)c2)C(=O)N2CCC[C@H]2C(=O)NC2(CCCC2)C(=O)N(C)[C@@H](C2CCCC2)C(=O)N(C)[C@H](C(=O)N(C)C)CC(=O)N1C [PP1340]	10.9	–	0.081	–	–	B (a compound having 3 or more and less than 10 is denoted as B)	B (a compound having 3 or more and less than 10 is denoted as B)	–

Second part, led by results:

IC50 [1] [nM]	Kd ([3]; SPR, Single Cycle Kinetics) [nM]	Kd [3, 5] [nM]	SMILES	HRAS/KRAS (ratio of KD value for HRAS to KD value for KRAS) ([2]; SPR)	NRAS/KRAS (ratio of KD value for NRAS to KD value for KRAS) ([4]; SPR)	HRAS/KRAS (ratio of KD value for HRAS to KD value for KRAS) ([2]; SPR, KD ratio class)	NRAS/KRAS (ratio of KD value for NRAS to KD value for KRAS) ([4]; SPR, KD ratio class)	also measured
7.5	0.062	–	CCOC[C@H]1C(=O)N[C@@H]([C@@H](C)CC)C(=O)N2CCC[C@H]2C(=O)N(C)[C@H]2C/C=C\CCN(C2=O)[C@@H](Cc2ccc(C(F)(F)F)cc2)C(=O)N(C)CC(=O)N[C@@H](CCc2ccc(C(F)(F)F)c(OC)c2)C(=O)N2C[C@@H](C)C[C@H]2C(=O)N(C)C2(CCC2)C(=O)N(C)[C@@H](C2CCCC2)C(=O)N(C)[C@H](C(=O)N(C)C)CC(=O)N1C [PP2363]	B (a compound having 3 or more and less than 10 is denoted as B)	A (a compound having 10 or more and less than 20 is denoted as A)	–	–	–
172	1.1	–	CCOC[C@H]1C(=O)N[C@@H]([C@@H](C)CC)C(=O)N2CCC[C@H]2C(=O)N(C)[C@H]2C/C=C\CCN(C2=O)[C@@H](CC2CCCCC2)C(=O)N(C)CC(=O)N[C@@H](CCc2ccc(C(F)(F)F)c(OC)c2)C(=O)N2C[C@@H](C)C[C@H]2C(=O)N(C)C2(CCC2)C(=O)N(C)[C@@H](C2CCCC2)C(=O)N(C)[C@H](C(=O)N(C)C)CC(=O)N1C [PP2375]	B (a compound having 3 or more and less than 10 is denoted as B)	A (a compound having 10 or more and less than 20 is denoted as A)	–	–	–
28.2	0.12	–	CCOC[C@H]1C(=O)N[C@@H]([C@@H](C)CC)C(=O)N(C)CC(=O)N(C)[C@H]2C/C=C\CCN(C2=O)[C@@H](Cc2ccc(C)cc2)C(=O)N(C)CC(=O)N[C@@H](CCc2ccc(C(F)(F)F)c(OC)c2)C(=O)N2C[C@H](C)C[C@H]2C(=O)NC2(CC(C)(C)C2)C(=O)N(C)[C@@H](C2CCCC2)C(=O)N(C)[C@H](C(=O)N(C)C)CC(=O)N1C [PP2393]	A (a compound having 10 or more and less than 20 is denoted as A)	A (a compound having 10 or more and less than 20 is denoted as A)	–	–	–
3.5	–	0.037	CCO[C@@H]1C[C@H]2C(=O)NC3(CCCC3)C(=O)N(C)[C@@H](C3CCCC3)C(=O)N(C)[C@H](C(=O)N(C)C)CC(=O)N(C)[C@@H](CC)C(=O)N[C@@H]([C@@H](C)CC)C(=O)N(C)CC(=O)N(C)[C@H]3CC[C@@H](C)CN(C3=O)[C@@H](Cc3ccc(C(F)(F)F)cc3)C(=O)N(C)CC(=O)N[C@@H](CCc3ccc(C(F)(F)F)c(Cl)c3)C(=O)N2C1 [PP1376]	–	–	B (a compound having 3 or more and less than 10 is denoted as B)	B (a compound having 3 or more and less than 10 is denoted as B)	–
–	0.033	–	CCO[C@@H]1C[C@H]2C(=O)N(C)C3(CC(C)(C)C3)C(=O)N(C)[C@@H](C3CCCC3)C(=O)N(C)[C@H](C(=O)N(C)C)CC(=O)N(C)[C@H]3CCCCCCc4ccc(cc4)C[C@@H](C(=O)N(C)CC(=O)N[C@@H](CCc4ccc(C(F)(F)F)c(OC)c4)C(=O)N2C1)N1CC/C=C\C[C@@H](C1=O)N(C)C(=O)CN(C)C(=O)[C@H]([C@@H](C)CC)NC3=O [PP3090]	B (a compound having 3 or more and less than 10 is denoted as B)	A (a compound having 10 or more and less than 20 is denoted as A)	–	–	IC50 ([1]; read-out: NCI-H441 cell proliferation inhibitory activity, 50% proliferation inhibitory concentration (IC50 value), NCI-H441, four days, CellTiter-Glo): 1.3 nM; ratio of the KD value with respect to GDP-bound HRAS wild-type protein to the KD value with respect to KRAS ([2]; SPR, KD(HRAS)/KD(KRAS)): B (a compound having 3 or more and less than 10 is denoted as B); ratio of the KD value with respect to GDP-bound NRAS wild-type protein to the KD value with respect to KRAS ([4]; SPR, KD(NRAS)/KD(KRAS)): A (a compound having 10 or more and less than 20 is denoted as A)
12.4	–	–	CC[C@H](C)[C@@H]1NC(=O)[C@H](COC)N(C)C(=O)C[C@@H](C(=O)N(C)C)N(C)C(=O)[C@H](C2CCCCC2)N(C)C(=O)C2(CC(C)(C)C2)NC(=O)[C@@H]2C[C@@H](OC(C)C)CN2C(=O)[C@H](CCc2cc(F)c(C(F)(F)F)c(F)c2)NC(=O)CN(C)C(=O)[C@H](Cc2ccc(C(F)(F)F)cc2)N2CC/C=C\C[C@@H](C2=O)N(C)C(=O)CN(C)C1=O [PP2654]	–	–	–	–	HRAS/KRAS (ratio of KD value with respect to GDP-bound HRAS wild-type protein to KD value with respect to KRAS) [2]: A (a compound having 10 or more and less than 20 is denoted as A); Kd [3, 6]: 0.12 nM; NRAS/KRAS (ratio of KD value with respect to GDP-bound NRAS wild-type protein to KD value with respect to KRAS) [4]: A (a compound having 10 or more and less than 20 is denoted as A)
51	–	–	CCC[C@H]1C(=O)N[C@@H]([C@@H](C)CC)C(=O)N(C2CC2)CC(=O)N(C)[C@H]2C/C=C\CCN(C2=O)[C@@H](Cc2ccc(C)cc2)C(=O)N(C)CC(=O)N[C@@H](CCc2ccc(Cl)c(Cl)c2)C(=O)N2C[C@H](OCC)C[C@H]2C(=O)NC2(CC(C)(C)C2)C(=O)N(C)[C@@H](CC(C)(C)C)C(=O)N(C)[C@H](C(=O)N(C)C)CC(=O)N1C [PP2726]	–	–	–	–	HRAS/KRAS (ratio of KD value with respect to GDP-bound HRAS wild-type protein to KD value with respect to KRAS) [2]: A (a compound having 10 or more and less than 20 is denoted as A); Kd [3, 6]: 1.1 nM; NRAS/KRAS (ratio of KD value with respect to GDP-bound NRAS wild-type protein to KD value with respect to KRAS) [4]: AA (a compound having 20 or more is denoted as AA)
18.8	1.1	–	CCO[C@@H]1C[C@H]2C(=O)NC3(CC(C)(C)C3)C(=O)N(C)[C@@H](C(CC)CC)C(=O)N(C)[C@H](C(=O)N(C)C)CC(=O)N(C)[C@@H](COC)C(=O)N[C@@H]([C@@H](C)CC)C(=O)N(C)CC(=O)N(C)[C@H]3C/C=C\CCN(C3=O)[C@@H](CC3CCCCC3)C(=O)N(C)CC(=O)N[C@@H](CCc3cc(F)c(C(F)(F)F)c(F)c3)C(=O)N2C1 [PP2456]	A (a compound having 10 or more and less than 20 is denoted as A)	A (a compound having 10 or more and less than 20 is denoted as A)	–	–	–
